Experimental findings from US9957271B2, “Substituted bicyclic aza-heterocycles and analogues as sirtuin modulators” (GlaxoSmithKline, LLC, priority 2012, dated 2018) are described below.

Read-outs that look alike come from different tables or passages of the source.

This assay deals with T1, SIRT1 (Homo sapiens, UniProt Q96EB6).
T1 sequence (Q96EB6 1-747): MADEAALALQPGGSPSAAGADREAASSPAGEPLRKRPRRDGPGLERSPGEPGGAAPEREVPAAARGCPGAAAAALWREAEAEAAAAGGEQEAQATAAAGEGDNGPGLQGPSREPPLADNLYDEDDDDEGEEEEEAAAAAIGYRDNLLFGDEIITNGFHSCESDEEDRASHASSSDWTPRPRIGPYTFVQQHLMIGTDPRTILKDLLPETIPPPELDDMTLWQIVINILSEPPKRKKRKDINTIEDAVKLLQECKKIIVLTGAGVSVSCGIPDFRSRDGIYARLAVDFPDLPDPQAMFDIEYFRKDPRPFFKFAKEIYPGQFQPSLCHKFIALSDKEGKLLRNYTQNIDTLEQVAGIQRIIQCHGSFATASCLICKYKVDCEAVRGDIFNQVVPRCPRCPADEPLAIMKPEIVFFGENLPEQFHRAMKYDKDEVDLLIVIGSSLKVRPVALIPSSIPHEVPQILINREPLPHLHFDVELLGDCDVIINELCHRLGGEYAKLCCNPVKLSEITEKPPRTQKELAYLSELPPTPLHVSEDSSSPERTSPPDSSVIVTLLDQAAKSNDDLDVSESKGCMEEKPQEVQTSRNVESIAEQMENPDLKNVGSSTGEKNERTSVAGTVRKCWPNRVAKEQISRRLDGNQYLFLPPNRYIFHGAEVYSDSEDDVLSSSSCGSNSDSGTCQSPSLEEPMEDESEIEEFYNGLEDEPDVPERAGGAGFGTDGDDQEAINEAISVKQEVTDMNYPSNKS
In words: TAMRA based mass spectrometry assay of SIRT1 activity. It counts as biochemical. The settings on record: for Emax: read-out: TAMRA % Fold Act. A digest of the protocol:
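Deacetylation of a biotinylated, TAMRA-tagged p53-based peptide (0.5 μM) by 10 nM His-tagged SIRT1 with 120 μM βNAD+, 25 °C for 25 min, pH 8 Tris-acetate buffer, across a compound concentration range. Quenched by formic acid and read by mass spec as product peptide or OAADPR; activity relative to DMSO reactions, nicotinamide defining maximal inhibition.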

The mark [1] stands for this setting: concentration of test compound giving 150% activation of SIRT1, TAMRA peptide substrate.
Setting [2] is: percent maximum fold activation of SIRT1, TAMRA peptide substrate.
The mark [3] stands for this setting: TAMRA assay, concentration giving 150% activation of SIRT1.
Setting [4] is: TAMRA assay, percent maximum fold activation.

As to `O=C(Nc1cc(N2CCOCC2)ccn1)c1cnc2ccc(-c3ccccc3C(F)(F)F)nn12` [Compound 176], the “TAMRA EC1.5 (μM)” value under setting [1] was “A (EC1.5<1 μM)”. Further, the Emax under setting [2] was less than 350%.
The matching figures for `O=C(Nc1cccc(N2CCOCC2)n1)c1cnc2ccc(-c3cccc(F)c3Cl)nn12` [Compound 178]: “A (EC1.5<1 μM)” and less than 350%.
The matching figures for `O=C(Nc1ccnc(N2CCC2)c1)c1cnc2ccc(-c3cccc(F)c3Cl)nn12` [Compound 179]: “A (EC1.5<1 μM)” and less than 350%.
For `O=C(Nc1cccc(CN2CCOCC2)n1)c1cnc2ccc(-c3cccc(F)c3Cl)nn12` [Compound 180] the same measures were “B (EC1.5 1-25 μM)” and no less than 350%.
For the compound `O=C(Nc1ccncc1)c1cnc2ccc(-c3cccc(F)c3Cl)nn12` [Compound 181], under setting [1], the “TAMRA EC1.5 (μM)” value is “B (EC1.5 1-25 μM)”. The Emax under setting [2] was less than 350%.
The matching figures for `O=C(Nc1cnccn1)c1cnc2ccc(-c3cccc(F)c3Cl)nn12` [Compound 184]: “B (EC1.5 1-25 μM)” and less than 350%.
With `CS(=O)(=O)c1ccccc1-c1ccc2ncc(C(=O)Nc3cccc(N4CCOCC4)n3)n2n1` [Compound 185], the “TAMRA EC1.5 (μM)” value under setting [1] is given as “B (EC1.5 1-25 μM)”. The Emax under setting [2] is less than 350%.
The matching figures for `CS(=O)(=O)c1ccccc1-c1ccc2ncc(C(=O)Nc3ccncc3)n2n1` [Compound 187]: “C (EC1.5>25 μM)” and less than 350%.
On to `CS(=O)(=O)c1ccccc1-c1ccc2ncc(C(=O)Nc3ccccn3)n2n1` [Compound 188], for which the “TAMRA EC1.5 (μM)” value under setting [1] is recorded as “C (EC1.5>25 μM)”. For the same compound, under setting [2], the Emax is less than 350%.
Turning to `N#Cc1ccccc1-c1ccc2ncc(C(=O)Nc3cccc(N4CCOCC4)n3)n2n1` [Compound 191], the “TAMRA EC1.5 (μM)” value under setting [1] is on record as “A (EC1.5<1 μM)”. Moreover, the Emax under setting [2] is less than 350%.
For `Cc1cc(-c2ccccc2C(F)(F)F)nn2c(C(=O)Nc3ccncc3)cnc12` [Compound 193, 8-methyl-N-(pyridin-4-yl)-6-(2-(trifluoromethyl)phenyl)imidazo[1,2-b]pyridazine-3-carboxamide] the same measures were “A (EC1.5<1 μM)” and no less than 350%.
For `Cc1cc(-c2ccccc2C(F)(F)F)nn2c(C(=O)Nc3ccccn3)cnc12` [Compound 194] the same measures were “A (EC1.5<1 μM)” and no less than 350%.
For `Cc1cc(-c2ccccc2C(F)(F)F)nn2c(C(=O)Nc3cccc(CN4CCOCC4)n3)cnc12` [Compound 195] the same measures were “A (EC1.5<1 μM)” and no less than 350%.
For `COc1cc(NC(=O)c2cnc3ccc(-c4ccccc4C(F)(F)F)nn23)nc(OC)n1` [Compound 196], the “TAMRA EC1.5 (μM)” value under setting [1] is on record as “A (EC1.5<1 μM)”. In addition, under setting [2], the Emax was no less than 350%.
Take `O=C(Nc1ccc(N2CCOCC2)cn1)c1cnc2ccc(-c3ccccc3C(F)(F)F)nn12` [Compound 199]: the “TAMRA EC1.5 (μM)” value under setting [3] was “A (EC1.5<1 μM)”. Further, the Emax under setting [4] is no less than 350%.
With `N#Cc1ccccc1-c1ccc2ncc(C(=O)Nc3ccccn3)n2n1` [Compound 200], under setting [3], the “TAMRA EC1.5 (μM)” value is on record as “B (EC1.5 1-25 μM)”. In addition, the Emax under setting [4] was less than 350%.
For `N#Cc1ccccc1-c1ccc2ncc(C(=O)Nc3ccnc(N4CCC4)c3)n2n1` [Compound 201] the same measures were “B (EC1.5 1-25 μM)” and no less than 350%.
The matching figures for `N#Cc1ccccc1-c1ccc2ncc(C(=O)Nc3cccc(CN4CCOCC4)n3)n2n1` [Compound 202]: “B (EC1.5 1-25 μM)” and less than 350%.
Consider `N#Cc1ccccc1-c1ccc2ncc(C(=O)Nc3ccncc3)n2n1` [Compound 203], for which, under setting [3], the “TAMRA EC1.5 (μM)” value is “B (EC1.5 1-25 μM)”. Moreover, under setting [4], the Emax was less than 350%.
As for `N#Cc1ccccc1-c1ccc2ncc(C(=O)Nc3cnccn3)n2n1` [Compound 205], the “TAMRA EC1.5 (μM)” value under setting [3] was “B (EC1.5 1-25 μM)”. Besides, the Emax under setting [4] is less than 350%.
The matching figures for `Cc1cc(-c2ccccc2C(F)(F)F)nn2c(C(=O)Nc3cnccn3)cnc12` [Compound 208]: “A (EC1.5<1 μM)” and no less than 350%.
For `Cc1cc2ncc(C(=O)Nc3cccc(N4CCOCC4)n3)n2nc1-c1ccccc1C(F)(F)F` [Compound 209] the same measures were “A (EC1.5<1 μM)” and no less than 350%.
For `O=C(Nc1ncccc1N1CCOCC1)c1cnc2ccc(-c3ccccc3C(F)(F)F)nn12` [Compound 211] the same measures were “C (EC1.5>25 μM)” and less than 350%.
With `O=C(Nc1cccc(OCC(O)CO)n1)c1cnc2ccc(-c3ccccc3C(F)(F)F)nn12` (stereo not shown) [Compound 212, N-(6-(2,3-dihydroxypropoxy)pyridin-2-yl)-6-(2-(trifluoromethyl)phenyl)imidazo[1,2-b]pyridazine-3-carboxamide], the “TAMRA EC1.5 (μM)” value under setting [3] is given as “A (EC1.5<1 μM)”. For the same compound, the Emax under setting [4] is no less than 350%.
The matching figures for `O=C(Nc1ccc(N2CCOCC2)nc1)c1cnc2ccc(-c3ccccc3C(F)(F)F)nn12` [Compound 216]: “B (EC1.5 1-25 μM)” and no less than 350%.
For `O=C(Nc1cncc(N2CCOCC2)c1)c1cnc2ccc(-c3ccccc3C(F)(F)F)nn12` [Compound 217] the same measures were “A (EC1.5<1 μM)” and no less than 350%.
With `Cc1cnc(C(=O)Nc2cnc3ccc(-c4ccccc4C(F)(F)F)nn23)cn1` [Compound 219, 5-methyl-N-(6-(2-(trifluoromethyl)phenyl)imidazo[1,2-b]pyridazin-3-yl)pyrazine-2-carboxamide], the “TAMRA EC1.5 (μM)” value under setting [3] is “A (EC1.5<1 μM)”. Moreover, the Emax under setting [4] is no less than 350%.
For `Cc1nc(C(=O)Nc2cnc3ccc(-c4ccccc4C(F)(F)F)nn23)c(C)s1` [Compound 220] the same measures were “A (EC1.5<1 μM)” and no less than 350%.
The matching figures for `Cc1cc2ncc(C(=O)Nc3ccnc(N4CCC4)c3)n2nc1-c1ccccc1C(F)(F)F` [Compound 225]: “A (EC1.5<1 μM)” and no less than 350%.
In the case of `O=C(Nc1nccc(OCC(O)CO)n1)c1cnc2ccc(-c3ccccc3C(F)(F)F)nn12` (stereo not shown) [Compound 226], the “TAMRA EC1.5 (μM)” value under setting [3] is given as “B (EC1.5 1-25 μM)”. Moreover, under setting [4], the Emax is no less than 350%.
The matching figures for `Cc1cc(C)nc(NC(=O)c2cnc3c(C)c(C)c(-c4ccccc4C(F)(F)F)nn23)c1` [Compound 228]: “A (EC1.5<1 μM)” and no less than 350%.
The matching figures for `Cc1c(-c2ccccc2Cl)nn2c(C(=O)Nc3cccc(N4CCOCC4)n3)cnc2c1C` [Compound 229]: “A (EC1.5<1 μM)” and no less than 350%.
The matching figures for `Cc1cccnc1C(=O)Nc1cnc2ccc(-c3ccccc3C(F)(F)F)nn12` [Compound 232]: “A (EC1.5<1 μM)” and no less than 350%.
On to `Cc1cccc(C(=O)Nc2cnc3ccc(-c4ccccc4C(F)(F)F)nn23)n1` [Compound 234], for which, under setting [3], the “TAMRA EC1.5 (μM)” value is reported as “A (EC1.5<1 μM)”. Also, the Emax under setting [4] was no less than 350%.
For `O=C(Nc1cnc2ccc(-c3ccccc3C(F)(F)F)nn12)c1cccc(OCC(O)CO)n1` (stereo not shown) [Compound 235], under setting [3], the “TAMRA EC1.5 (μM)” value is “A (EC1.5<1 μM)”. Under setting [4], the “TAMRA % Fold Act” value is given as “A (Fold activation ≥350%)”.
Regarding `Cc1nc(NC(=O)c2cnc3ccc(-c4ccccc4C(F)(F)F)nn23)sc1C` [Compound 237], under setting [3], the “TAMRA EC1.5 (μM)” value is “A (EC1.5<1 μM)”. Moreover, the Emax under setting [4] is no less than 350%.
For `O=C(Nc1ccncc1)c1cnn2ccc(-c3ccccc3C(F)(F)F)nc12` [Compound 240, N-(pyridin-4-yl)-5-(2-(trifluoromethyl)phenyl)pyrazolo[1,5-a]pyrimidine-3-carboxamide] the same measures were “A (EC1.5<1 μM)” and no less than 350%.
The matching figures for `O=C(Nc1cccc(N2CCOCC2)n1)c1cnn2ccc(-c3ccccc3C(F)(F)F)nc12` [Compound 241]: “A (EC1.5<1 μM)” and no less than 350%.
For `Cc1cc(C)nc(NC(=O)c2cnc3ccc(-c4ccccc4F)nn23)c1` [Compound 243], under setting [3], the “TAMRA EC1.5 (μM)” value was “A (EC1.5<1 μM)”. The Emax under setting [4] is no less than 350%.
For `Cc1cc(C)nc(NC(=O)c2cnc3ccc(-c4ccccc4Cl)nn23)c1` [Compound 245] the same measures were “A (EC1.5<1 μM)” and no less than 350%.
For `Cc1cc2ncc(C(=O)Nc3cnccn3)n2nc1-c1ccccc1C(F)(F)F` [Compound 246] the same measures were “B (EC1.5 1-25 μM)” and no less than 350%.
